Columns and labels:
[1] = target: T1, m2 muscarinic acetylcholine receptor (Homo sapiens, UniProt P08172); test: biochemical; assay type: binding; details: CHO cells expressing m2; 0.2 nM [3H]-N-methylscopolamine, pH 7.4, 120 min, room temperature
T1 construct: purchased Receptor Biology Inc; host or cells: CHO cells
T1 sequence (P08172 1-466): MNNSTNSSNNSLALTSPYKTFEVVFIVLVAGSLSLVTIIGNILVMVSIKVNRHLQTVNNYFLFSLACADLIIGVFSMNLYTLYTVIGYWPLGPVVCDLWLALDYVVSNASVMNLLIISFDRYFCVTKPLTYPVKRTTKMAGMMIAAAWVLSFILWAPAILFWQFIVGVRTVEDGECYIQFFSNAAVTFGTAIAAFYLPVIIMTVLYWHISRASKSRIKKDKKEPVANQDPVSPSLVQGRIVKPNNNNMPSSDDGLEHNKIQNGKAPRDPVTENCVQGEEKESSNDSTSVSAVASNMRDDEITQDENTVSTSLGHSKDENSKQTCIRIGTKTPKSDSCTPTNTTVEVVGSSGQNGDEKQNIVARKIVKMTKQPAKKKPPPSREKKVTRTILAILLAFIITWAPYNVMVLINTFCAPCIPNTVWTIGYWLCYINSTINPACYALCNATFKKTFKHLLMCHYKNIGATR
Experimental: (§1) These tests were performed according to a modification of the method of Hargreaves et al. (Br. J. Pharmacol. 107: pp. 494-501, 1992). Thus, CHO cells expressing m2 and m3 muscarinic acetylcholine receptors (Receptor Biology Inc.) were incubated with 0.2 nM [^3 H]-N-methylscopolamine (84Ci/mmol, New England Nuclear, Inc.) and each compound of the present invention to be tested in 0.5 ml of 50 mM tris-HCl--10 mM MgCl2 --1 mM EDTA (pH 7.4) for 120 minutes at room temperature (about 20 to 25° C.), followed by suction filtration with a glass filter (Uni-Filter plate GF/C; Packard Instruments Co., Ind.) and washing four times with 1 ml of ice-cold Tris-HCl buffer. After the filter was dried for 1 hour at 50° C., a scintillator (Miroscinti 0; Packard Instruments Co., Inc.) was added, and the radioactivity of [^3 H]-N-methylscopolamine adsorbed by the filter was counted by a liquid scintillation counter (TopCount™; Packard Instruments Co., Inc.). Non-specific binding of [^3 H]-N-methylscopolamine was measured in the presence of 1 μM N-methylscopolamine, which was added. According to the method of Cheng and Prusoff (Biochem. Pharmacol. 22: pp. 3099-3108, 1973), the binding affinity (Ki value) of the compound of the present invention for muscarinic receptors was calculated from the concentration (IC50) of the test compound which achieved 50% inhibition of the binding of [^3 H]-N-methylscopolamine, labeled ligand.

[2] = target: T2, m3 muscarinic acetylcholine receptor (Homo sapiens, UniProt P20309); test: biochemical; assay type: binding; details: for Ki: CHO cells expressing m3, 0.2 nM [3H]-N-methylscopolamine, pH 7.4, 120 min, room temperature; for m2/m3 (ratio of Ki): selectivity m2 over m3, binding
T2 construct: purchased Receptor Biology Inc; host or cells: CHO cells
T2 sequence (P20309 whole entry): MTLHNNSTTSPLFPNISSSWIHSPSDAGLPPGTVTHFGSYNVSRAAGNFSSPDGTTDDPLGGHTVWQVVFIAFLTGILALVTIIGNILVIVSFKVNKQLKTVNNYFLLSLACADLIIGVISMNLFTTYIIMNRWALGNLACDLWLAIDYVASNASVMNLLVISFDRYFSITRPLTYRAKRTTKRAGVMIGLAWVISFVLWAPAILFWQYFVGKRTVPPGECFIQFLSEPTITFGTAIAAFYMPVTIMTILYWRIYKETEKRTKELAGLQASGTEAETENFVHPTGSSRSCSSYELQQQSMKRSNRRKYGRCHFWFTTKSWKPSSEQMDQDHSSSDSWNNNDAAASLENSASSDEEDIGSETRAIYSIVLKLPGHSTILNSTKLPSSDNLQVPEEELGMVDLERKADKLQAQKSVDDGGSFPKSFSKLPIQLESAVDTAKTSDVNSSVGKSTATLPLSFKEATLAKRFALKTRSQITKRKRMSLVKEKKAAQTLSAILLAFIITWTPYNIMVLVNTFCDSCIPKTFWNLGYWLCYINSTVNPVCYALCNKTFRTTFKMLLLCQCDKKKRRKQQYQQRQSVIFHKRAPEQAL
Experimental: as §1

muscarinic M3 receptor = test: Bronchodilation in dogs (oral administration), methacholine provocation test; assay type: in vivo, dog (beagle); details: 0.1 mg/kg, P.O., 4 hrs later
Experimental: Tests for Antagonism Against Muscarinic M3 Receptor (in vivo)
Tests for Bronchodilation in Dogs (oral administration)
Male beagles of 12 to 24 months of age, weight 10 to 15 kg, were anesthetized with pentobarbital (30 mg/kg, iv.), and the trachea of each dog was intubated. The sensitivity of the airway (methacoline reaction threshold value) was measured at least twice at two weeks' intervals by a methacoline provocation test, and dogs manifesting a reproducible methacoline reaction threshold value^1) were selected. To those dogs whose methacholine reaction threshold value was established, the test compound was orally administered (0.1 mg/kg). Four hours after the administration, a methacoline provocation test was again conducted, and the methacholine reaction threshold value^2) after the administration of the test compound was measured. The brochodilator activity of the test compound was determined by the following equation: [formula]
The methacholine provocation test was conducted using an Astograph TCK-6100H model (Chest). Methacholine chloride was used as brochoconstritor, which was diluted with isotonic sodium chloride solution in 10 grade concentration levels from 40,000 μg/ml to 20,000, 10,000, 5,000, 2,500, 1,250, 625, 312.5, 156 and 78 μg/ml. The test animals were caused to inhale these methacoline aerosols for 1 min. at a time, starting with the lowest concentration upward, and the respiratory resistance was continuously recorded. The concentration of methacoline at which the respiratory resistance reached a value twice its initial level was deemed to be the methacholine threshold value.

[3] = target: T3, M2 receptor (right atrium) (Rattus norvegicus, UniProt P10980); test: Antagonism to M2 receptor in isolated rat right atrium (carbachol dose-response); details: 32° C.
T3 construct: the right atrium was isolated; from tissue; host or cells: isolated right atrium of male SD rat
T3 sequence (P10980 1-466): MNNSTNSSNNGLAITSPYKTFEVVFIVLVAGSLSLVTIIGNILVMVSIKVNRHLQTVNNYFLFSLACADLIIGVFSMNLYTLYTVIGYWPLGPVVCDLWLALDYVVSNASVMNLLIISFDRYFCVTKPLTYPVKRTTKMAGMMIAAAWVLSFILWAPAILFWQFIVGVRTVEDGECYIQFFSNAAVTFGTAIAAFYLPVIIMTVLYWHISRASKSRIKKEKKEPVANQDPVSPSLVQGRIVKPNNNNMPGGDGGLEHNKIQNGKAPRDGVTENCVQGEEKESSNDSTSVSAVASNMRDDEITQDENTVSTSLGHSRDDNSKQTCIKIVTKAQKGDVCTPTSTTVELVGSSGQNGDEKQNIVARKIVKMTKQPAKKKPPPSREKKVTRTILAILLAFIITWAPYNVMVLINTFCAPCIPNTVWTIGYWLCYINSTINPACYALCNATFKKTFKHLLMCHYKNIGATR
Experimental: 1) Tests for Antagonism to M2 Receptor in an Isolated Rat Right Atrium
These tests were performed according to a conventional method. A male SD strain rat (weighing 300-500 g) was killed by exsanguination, and the right atrium was isolated. This preparation was isometrically suspended in organ bath filled with 20 ml of Krebs-Hanseleit solution (gassed with 95% O2 -5% CO2 and kept at 32° C.) with an initial tension of 0.5 g. The heart rate was recorded with a heart rate counter. After the preparation was equilibrated for 30 minutes, carbachol (10^-9 to 10^-6 M) was cumulatively administered in three-fold increasing doses. Thus, a decrease in heart rate was measured to obtain a dose-response curve for the control experiment. After the preparation was washed with fresh solution to restore the heart rate, a test compound was administered thereto. Ten minutes later, carbachol was cumulatively administered again. Responses to carbachol were expressed as percentages based on the heart rate before the administration of carbachol as 100%. The antagonistic potency (KB value) of the test compound was determined from the degree of shift of the dose-response curve obtained by treatment with individual test compound of the present invention.

M3 receptor (trachea) = target: T4, M3 receptor (trachea) (Rattus norvegicus, UniProt P08483); test: Antagonism to airway M3 receptor in isolated rat trachea (carbachol dose-response); details: for Kb: isolated rat trachea, carbachol, 32° C.; for M2/M3 (ratio of KB): selectivity right atrium M2 over trachea M3, in vitro
T4 construct: the trachea was isolated; from tissue; host or cells: isolated trachea of male SD rat
T4 sequence (P08483 whole entry): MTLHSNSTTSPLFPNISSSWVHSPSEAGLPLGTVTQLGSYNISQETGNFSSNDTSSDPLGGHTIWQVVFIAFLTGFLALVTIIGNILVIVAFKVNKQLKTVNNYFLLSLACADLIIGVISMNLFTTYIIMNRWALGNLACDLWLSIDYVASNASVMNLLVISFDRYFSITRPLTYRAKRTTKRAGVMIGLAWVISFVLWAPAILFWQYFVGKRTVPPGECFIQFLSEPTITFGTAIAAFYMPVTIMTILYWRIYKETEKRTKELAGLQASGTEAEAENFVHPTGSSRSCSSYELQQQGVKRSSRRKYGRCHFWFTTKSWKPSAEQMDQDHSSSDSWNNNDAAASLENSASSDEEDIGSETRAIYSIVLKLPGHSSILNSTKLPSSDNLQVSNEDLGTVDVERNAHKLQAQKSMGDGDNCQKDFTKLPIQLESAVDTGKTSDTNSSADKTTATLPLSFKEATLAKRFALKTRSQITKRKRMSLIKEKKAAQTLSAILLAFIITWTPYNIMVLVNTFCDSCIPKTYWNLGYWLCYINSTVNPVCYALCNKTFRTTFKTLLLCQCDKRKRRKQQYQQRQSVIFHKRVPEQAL
Experimental: 2) Tests for Antagonism to the Airway M3 Receptor in an Isolated Rat Right Trachea
These tests were performed according to a conventional method. A male SD strain rat (weighing 300-500 g) was killed by exsanguination, and the trachea was isolated. Annular segments (2 mm wide) were cut out from the trachea and cut transversely at the anterior cartilage part to make an open ring preparation. The preparation was suspended in a Magnus tube filled with 5 ml of Krebs-Hanseleit solution (gassed with 95% O2 -5% CO2 and kept at 32° C.) with an initial tension of 1.0 g and a resting tension of 0.6 g. The tension of the preparation was recorded isometrically. After the preparation was equilibrated for an hour, the preparation was caused to contract twice with 10^-4 M carbachol, and the second contraction induced by carbachol was used as the reference contraction. After the preparation was washed with fresh solution to be restored to the base line, a test compound was administered thereto (or no treatment was given). Ten minutes later, carbachol (10^-8 to 10^-3 M) was cumulatively administered in three-fold increasing doses to obtain a dose-response curve. The dose-response curve was plotted by expressing responses as percentages based on the reference contraction of the preparation as 100%. The antagonistic potency (KB value) of the test compound was determined from the degree of shift of the dose-response curve obtained by treatment with the test compound.

Row | Structure (SMILES) | Ki [1] [nM] | Ki [2] [nM] | m2/m3 (ratio of Ki) [2] | Methacoline Provocation Test Shift value (muscarinic M3 receptor) | Kb [3] [nM] | Kb (M3 receptor (trachea)) [nM] | M2/M3 (ratio of KB) (M3 receptor (trachea))
1 | CC1NCCC12CCN(C(=O)[C@](O)(c1ccccc1)[C@@H]1CCC(F)(F)C1)CC2 (single isomer, unassigned) [Example 43 ((IS*)-substance), (1R*)- and (1S*)-8-{(2R)-2-((1R)-3,3-difluorocyclopentyl)-2-hydroxy-2-phenylacetyl}-1-methyl-2,8-diazaspiro[4.5]decane] | 21 | 0.26 | 80 | 22 |  |  | 
2 | Cl.NC1CCN(C(=O)[C@](O)(c2ccccc2)[C@@H]2CCC(F)(F)C2)CC1 [Example 1, 4-Amino-1-{(2R)-2-((1R)-3,3-difluorocyclopentyl)-2-hydroxy-2-Phenylacetyl}piperidine monohydrochloride] |  |  |  |  | 730 | 20 | 37
3 | O=C(N1CCC2(CCNC2)CC1)[C@](O)(c1ccccc1)[C@@H]1CCC(F)(F)C1 [Example 26, 8-{(2R)-2-((1R)-3,3-difluorocyclopentyl)-2-hydroxy-2-phenylacetyl}-2,8-diazaspiro[4.5]decane] | 27 | 0.44 | 60 | 7.1 | 75 | 0.83 | 75
4 | O=C(N1C[C@H]2CCNCC[C@H]2C1)[C@](O)(c1ccccc1)[C@@H]1CCC(F)(F)C1 [Example 29, 9-{(2R)-2-((1R)-3,3-difluorocyclopentyl)-2-hydroxy-2-phenylacetyl}-cis-4,9-diazabicyclo[5.3.0]decane] | 230 | 1.2 | 190 | 22 | 230 | 1.6 | 140
5 | O=C(N1CC2=C(CNC2)C1)[C@](O)(c1ccccc1)[C@@H]1CCC(F)(F)C1 [Example 35, 3-{(2R)-2-((1R)-3,3-difluorocyclopentyl)-2-hydroxy-2-phenylacetyl}-3,7-diazabicyclo[3.3.0]oct-1(5)-ene] | 670 | 4.2 | 160 | 5.8 | 2400 | 8 | 300

Source: US6140333A, “N-acyl cyclic amine derivatives” (priority 1998, dated 2000)
